These results are taken from PMC3500438 (Organic letters, 2012).

For data set [1], the system named is 97 kinases (both wild-type and mutants). Kind of data set: KINOMEscan panel. The data set is classed as binding. The conditions noted are these: 10 μM.
Data set [2] has as its system 68 GPCRs, ion channels and transporters. Kind of data set: Lead Profiling screen. The class given is binding. The conditions noted are these: 10 μM, 68 targets.
A further data set has as its system healthy cells. To be noted: cited from earlier work.
The target in the next data set is 5-HT2B (Homo sapiens, UniProt P41595). The experiment in a line: Lead Profiling screen radioligand binding, 5-HT2B.
The conditions of data set [3]: cited from earlier work.
The subject of another data set is rat PDE4 (Rolipram). The experiment in a line: rat Rolipram radioligand binding. To be noted: for IC50: read-out: rat Rolipram IC50; for IC50 / Ki: Wistar rat brain, 1.8 nM [3H] rolipram, 1% DMSO, 60 min at 4 °C, 50 mM Tris-HCl, pH 7.4; for Ki: read-out: rat Rolipram Ki. Details: species or system Wistar rat.

“Also recorded” adds a separate entry of the source. Some results are limits rather than exact numbers.

Chain of 5-HT2B (P41595 whole entry, species assumed): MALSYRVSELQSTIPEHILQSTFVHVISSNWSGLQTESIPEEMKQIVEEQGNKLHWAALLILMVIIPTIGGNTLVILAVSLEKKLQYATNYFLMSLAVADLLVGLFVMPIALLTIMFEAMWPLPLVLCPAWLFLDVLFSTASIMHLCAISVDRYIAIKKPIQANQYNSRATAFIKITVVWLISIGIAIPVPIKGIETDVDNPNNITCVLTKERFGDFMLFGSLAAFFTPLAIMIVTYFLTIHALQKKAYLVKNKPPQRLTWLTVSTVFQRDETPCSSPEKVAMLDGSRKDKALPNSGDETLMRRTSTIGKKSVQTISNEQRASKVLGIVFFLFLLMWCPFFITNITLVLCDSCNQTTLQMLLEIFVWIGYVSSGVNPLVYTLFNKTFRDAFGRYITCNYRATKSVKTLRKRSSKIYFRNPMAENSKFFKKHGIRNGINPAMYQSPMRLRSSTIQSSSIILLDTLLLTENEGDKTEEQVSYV

For `Nc1ncnc2c1ncn2Cc1nc2ccccc2c2cc[nH]c12` [compound 6, aplidiopsamine A], in data set [1], the “activity in KINOMEscan panel” value was “uniformly inactive”. In addition, the “ancillary pharmacology in Lead Profiling screen” value in data set [2] was “activity at only two targets”. Also, the “toxicity to healthy cells / cytotoxicity” value in the data set with healthy cells is given as “without toxicity to healthy cells; also recorded: not be cytotoxic”. In addition, on 5-HT2B (10 μM), the “5-HT2B activity in radioligand binding panel” value is given as 62%. Also, the Ki (in general, a measure of affinity in units of concentration, obtained from inhibition or displacement) at 5-HT2B (read-out: 5-HT2B Ki, full concentration-response-curve) is around 10 µM; at rat PDE4 (Rolipram) it was 1.2 µM. In addition, the antimalarial activity entry in data set [3] was “potent antimalarial agent”. In addition, in the data set with rat PDE4 (Rolipram) (10 μM), the “PDE4/Rolipram activity in radioligand binding panel” value stood at 74%. Moreover, the IC50 (as a rule, the concentration needed to halve the response being measured) on rat PDE4 (Rolipram) was 3.3 µM.

`Cc1nc2ccccc2c2cc[nH]c12` [compound 1, marinoquinoline A]: the “PDE4 activity (in words)” value in the data set with rat PDE4 (Rolipram) (rat PDE4 (Rolipram) and human PDE4) was “inactive”. For the same compound, on rat PDE4 (Rolipram), the IC50 is above 100 µM and the Ki was above 100 µM.
